Reference: patent publication US20210030757A1, “METHOD OF TREATMENT AND COMPOSITIONS COMPRISING A DUAL P13K DELTA-GAMMA KINASE INHIBITOR AND A CORTICOSTEROID” (priority 2014, published 2021)

What was measured:
[1] = system: human neutrophils from healthy volunteers; experiment: CSE-induced IL-8 release in peripheral blood neutrophils from healthy non-smokers; assay type: cell-based; settings: stimulus CSE 5%, 6 h, mean ± SEM; for IC50: Homo sapiens, Neutrophil, read-out: −log IC50 (IL-8 release) (converted)
Method: (§1) Neutrophils were isolated from peripheral venous blood by standard laboratory procedures. In brief, peripheral venous blood was mixed with dextran 500 at 3% (in 0.9% saline) in a proportion of 2:1. This mixture was incubated at room temperature for 30 min until erythrocytes were sedimented. The upper phase was carefully collected and added on Ficoll-Paque Histopaque 1077 (Amershan Pharmacia Biotech, Barcelona, Espana) density gradient in a proportion of 3:1. The two phases generated were centrifuged at 150 g, 4° C. for 30 min. Thus, the pellet obtained (which is consisted a mixture of neutrophils and low proportion of residual erythrocytes and traces of eosinophils and basophils) was resuspended in an erythrocyte lysis buffer (Biolegend, UK) for 5 min in ice. Cell suspension was washed two times with phosphate buffer (PBS). […] Neither purity nor viability was affected in the study's different experimental conditions.
(§2) CSE was prepared as follows: Briefly, the smoke of a research cigarette (2R4F; Tobacco Health Research, University of Kentucky, Ky., USA) was generated by a respiratory pump (Apparatus Rodent Respirator 680; Harvard, Germany) through a puffing mechanism related to the human smoking pattern (3 puff/min; 1 puff 35 ml; each puff of 2 s duration with 0.5 cm above the filter) and was bubbled into a flask containing 25 ml of pre-warmed (37° C.) Roswell Park Memorial Institute (RPMI)-1640 culture medium. The CSE solution was sterilized by filtration through a 0.22-μm cellulose acetate sterilizing system (Corning, N.Y.). The resultant CSE solution was considered to be 100% CSE and was used for experiments within 30 min of preparation. CSE 10% corresponds approximately to the exposure associated with smoking two packs per day. The quality of the prepared CSE solution was assessed based on the absorbance at 320 nm, which is the specific absorption wavelength of peroxynitrite. Stock solutions with an absorbance value of 3.0±0.1 were used. To test for cytotoxicity from CSE, isolated neutrophils were treated with CSE concentrations of up to 5% for […].
(§3) Isolated human neutrophils from healthy volunteers and COPD patients were incubated with Compound A (0.01 nM-100 μM) and Dexamethasone (0.1 nM-1 μM) or vehicle for 30 minutes before incubation with or without CSE 5% for 6 hours in standard cell culture conditions (37° C. and 5% CO2). Supernatants were collected to measure different inflammatory markers.
(§4) IL-8 was measured by ELISA using a commercially available kit.
(§5) Experiments were done in triplicate in […] three patients per experimental condition.
(§6) Neutrophils from healthy and COPD patients were stimulated with CSE 5% in the presence of Compound A (0.01 nM-100 μM) or dexamethasone (DEX; 0.1 nM-1 μM) for 6 h and IL-8 supernatants were measured.

[2] = system: human neutrophils from COPD patients; experiment: CSE-induced IL-8 release in peripheral blood neutrophils from COPD patients; assay type: cell-based; settings: stimulus CSE 5%, 6 h, mean ± SEM; for IC50: Homo sapiens, Neutrophil, read-out: −log IC50 (IL-8 release) (converted)
Method: as §1, §2, §3, §4, §5, §6

[3] = system: Balb/c mice; experiment: Chronic cigarette smoke induced cell infiltration in male Balb/c mice (BALF cells and cytokines); assay type: in vivo
Method: Animals were acclimatized for seven days prior to the start of the experiment. Animals were randomly distributed to various groups based on their body weights. Mice were exposed to the mainstream smoke of 2 cigarettes from day 1 to day 11. Exposure to the smoke of each cigarette lasted for 10 min (each cigarette was completely burned in the first two minutes, followed by an air flow with animal ventilator) and were exposed for the next 20 min with fresh room air. After every second cigarette an additional break of 20 min with exposure to fresh room air was conducted. Control animals were exposed to the room air chamber. Test compound was administered by the intranasal route as suspension from day 12 to day 14 before 30 mins whole body smoke exposure. Mice were exposed to the mainstream smoke of 1 cigarette from day 12 to day 14. On day 15, 24 hours after the last cigarette smoke (CS) exposure animals were exsanguinated under anaesthesia, and the trachea was cannulated and the lungs were lavaged with 0.5 ml aliquots of heparinised PBS (1 unit/ml) four times through tracheal cannula (total volume 2 ml). Bronchioalveolar (BAL) collected was stored at 2-8° C. until assayed for total cell and differential leukocyte count. BAL fluid was centrifuged (500×g for 10 min) and the resulting cell pellet was resuspended in 0.5 ml of heparinised saline. The total number of white blood cells was determined in BAL fluid and blood using a blood cell counter and adjusted to 1×10^6 cell/ml. Differential cell count was calculated manually. Forty microliters of the cell suspension was centrifuged using cytospin 3 to prepare a cell smear. The cell smear was stained with a blood staining solution for differentiation and microscopically observed by identifying each cell according to its morphological characteristics. The number of each cell type among 300 white blood cells in the cell smear was determined and expressed as a percentage, and the number of neutrophils and macrophages in each BAL fluid were calculated. In addition BAL supernatant were analysed for various cytokinines using ELISA assay.

[4] = system: Balb/c mice; experiment: Reversal of corticosteroid insensitivity in chronic cigarette smoke induced cell infiltration in male Balb/c mice; assay type: in vivo; settings: Mus musculus, Macrophage, inhaled or nasal; murine chronic COPD model; intranasal; read-out: ED50 (cell count in BAL, macrophage infiltration)
Method: Animals were acclimatized for seven days prior to the start of the experiment. Animals were randomly distributed to various groups based on their body weights. Mice were exposed to the mainstream smoke of 2 cigarettes from day 1 to day 11. Exposure to the smoke of each cigarette lasted for 10 min (each cigarette was completely burned in the first two minutes, followed by an air flow with animal ventilator) and were exposed for the next 20 min with fresh room air. After every second cigarette an additional break of 20 min with exposure to fresh room air was conducted. Control animals were exposed to the room air chamber. Corticosteroid, fluticasone was administered by intranasal route from day 6 to day 11 before 30 mins whole body smoke exposure. Mice were exposed to the mainstream smoke of 1 cigarette from day 12 to day 14. […] The total number of white blood cells was determined in BAL fluid and blood using a blood cell counter and adjusted to 1×10^6 cell/ml. Differential cell count was calculated manually. […] The number of each cell type among 300 white blood cells in the cell smear was determined and expressed as a percentage, and the number of neutrophils and macrophages in each BAL fluid were calculated. In addition BAL supernatant were analysed for various cytokines using ELISA assay.

[5] = system: MIF; experiment: MIF mRNA expression in peripheral neutrophils from COPD patients (RT-PCR); assay type: cell-based, human; settings: CSE 5%; Compound A exposure
Method: (§7) Measurement of basal RNA expression of corticosteroid resistant mediators: Total RNA was isolated from peripheral human neutrophils from COPD patients in basal conditions and after experimental conditions. Cells were homogenized and RNA was extracted using TriPure® Isolation Reagent (Roche, Indianapolis, USA). The reverse transcription was performed in 300 ng of total RNA with TaqMan reverse transcription reagents kit (Applied Biosystems, Perkin-Elmer Corporation, CA, USA). 1.5 μl of result cDNA was amplified with specific predesigned primers (Applied Biosystems) for MIF (cat no Hs00236988), MKP-1 (cat no Hs00610256), PI3K-δ (cat n° Hs00192399), PI3Kγ (cat n° Hs00277090) and GAPDH (cat no 4310884E) as endogenous control in a 7900HT Fast Real-Time PCR System (Applied Biosystem) using Universal Master Mix (Applied Biosystems). Relative quantification of these different transcripts was determined with the 2^−ΔΔct method and normalized to control groups.
(§8) mRNA expression of the MIF, MKP-1, PI3K-δ and PI3Kγ genes was measured in basal conditions and at the end of the experiments.
(§9) Experiments were done in triplicate in at least three patients per experimental condition.

[6] = system: MKP-1; experiment: MKP-1 mRNA expression in peripheral neutrophils from COPD patients (RT-PCR); assay type: cell-based, human; settings: CSE 5%; 10 nM or 100 nM Compound A
Method: as §7, §8, §9

[7] = system: PI3Kγ; experiment: PI3Kγ mRNA expression in peripheral neutrophils from COPD patients (RT-PCR); assay type: cell-based, human; settings: CSE 5%; 10 nM or 100 nM Compound A
Method: as §7, §8, §9

[8] = system: PI3K; experiment: PI3K activity (PIP3 production, PI3-Kinase Activity ELISA) in neutrophils from COPD patients; assay type: cell-based, human; settings: Compound A 10 nM, 1 h, CSE 5% 30 min
Method: Measurement of Pi3K isoforms: To measure PI3K activity, neutrophils from COPD patients were isolated and incubated with Compound A at 10 nM for 1 h. Then cells were stimulated with CSE 5% for 30 min. After cell stimulation, neutrophils were centrifuged and total protein was extracted from neutrophils. Total protein amount was measured using The Bio-Rad assay (Bio-Rad Laboratories Ltd., Herts, UK) to ensure equal amount. PI3K activity was measured using the PI3-Kinase Activity ELISA: Pico (cat. no k-1000 s, Echelon Bioscience, Salt Lake City, USA) according to the manufacturer's protocol. In brief, PI3-K reactions were run with the Class I PI3-K physiological substrate PI(4,5)P2 (PIP2). The enzyme reactions, PIP3 standards and controls were then mixed and incubated with PIP3 binding protein that is highly specific and sensitive to PIP3. This mixture was then transferred to a PIPI3-coated microplate for competitive binding. Afterwards, a peroxidase-linked secondary detector and colorimetric detection was used to detect the amount of PIP3 produced by PI3-K through comparing the enzyme reactions with a PIP3 standard curve.
as §9

C[C@@H]1C[C@H]2[C@@H]3CCC4=CC(=O)C=C[C@]4(C)[C@@]3(F)[C@@H](O)C[C@]2(C)[C@@]1(O)C(=O)CO [dexamethasone, reference compound]
IC50 [1]: 0.0141 µM
Maximal % Inhibition of IL-8 release [1]: 83.9%
IC50 [2]: 0.0135 µM
Maximal % Inhibition of IL-8 release [2]: 19.84 ± 11.46 %

CC(C)Oc1ccc(-c2nn([C@@H](C)c3oc4cccc(F)c4c(=O)c3-c3cccc(F)c3)c3ncnc(N)c23)cc1F [Compound A]
Macrophage count in BAL fluid ([3]; 0.003-3 mg/kg intranasal, day 12 to 14, vs disease controls): significantly reduced toward normal
IFNγ in BALF (% inhibition) ([3]; dose 0.003 mg/kg intranasal): 0%
IL-6 in BALF (% inhibition) ([3]; dose 0.003 mg/kg intranasal): 11%
IL-12/IL-23 in BALF (% inhibition) ([3]; dose 0.003 mg/kg intranasal): 0%
TNFα in BALF (% inhibition) ([3]; dose 0.003 mg/kg intranasal): 17%
IFNγ in BALF (% inhibition) ([3]; dose 0.03 mg/kg intranasal): 25%
IL-6 in BALF (% inhibition) ([3]; dose 0.03 mg/kg intranasal): 44%
IL-12/IL-23 in BALF (% inhibition) ([3]; dose 0.03 mg/kg intranasal): 0%
TNFα in BALF (% inhibition) ([3]; dose 0.03 mg/kg intranasal): 40%
IFNγ in BALF (% inhibition) ([3]; dose 0.3 mg/kg intranasal): 90%
IL-6 in BALF (% inhibition) ([3]; dose 0.3 mg/kg intranasal): 99%
IL-12/IL-23 in BALF (% inhibition) ([3]; dose 0.3 mg/kg intranasal): 100%
TNFα in BALF (% inhibition) ([3]; dose 0.3 mg/kg intranasal): 99%
ED50 [4]: 0.093 mg/kg
IC50 [1]: 0.295 µM
Maximal % Inhibition of IL-8 release [1]: 97.4±5.3%
IC50 [2]: 0.0479 µM
Maximal % Inhibition of IL-8 release [2]: 85.14%
expression of MIF (mRNA) [5]: not significantly affected
expression of MKP1 (mRNA) [6]: increased the expression of MKP1 near to control levels
CSE induced PI3Kγ expression (mRNA) [7]: significant reduction
PI3K activity measured as PIP3 production [8]: completely suppressed
